According to PMC8208785, “Therapeutic efficacy of novel memantine nitrate MN‐08 in animal models of Alzheimer’s disease” (Aging Cell, 2021):
Entries after “also recorded” stand apart in the source; their conditions may differ.

Assays:
[1] = system: ERK and PI3K/Akt/GSK3β pathway; assay: Western blotting of p-ERK, p-Akt, p-GSK3β and Bcl-2 in glutamate-challenged CGNs; assay type: cell-based, rat; settings: LY294002 incubated with MN‐08
Excerpt: To further characterize the neuroprotection of MN‐08, the level of the key signaling molecules, such as ERK, Akt, and GSK3β, was examined by Western blotting assay. […] Moreover, pre‐treatment with MN‐08 reversed expression of both p‐Akt and p‐GSK3β with the challenge of glutamate. Akt is an important downstream member of PI3K. To further confirm whether the PI3K/Akt pathway was associated with the neuroprotection of MN‐08 against glutamate‐induced excitotoxicity, specific PI3K inhibitor LY294002 was applied and incubated with MN‐08. […] Taken together, MN‐08 might protect against glutamate‐induce cytotoxicity by reversing the dysregulations of ERK pathway and PI3K/Akt/GSK3β pathway.
Western blotting analysis was performed as previously described with minor modifications (Huang, Li, & Nan, 2017). Proteins were extracted from hippocampal tissue and their concentrations determined by the BCA protein assay kit (Fdbio science, Hangzhou, China). The protein (20 μg) was separated on a 12% SDS-PAGE gel and then transferred to PVDF membranes. The membranes were blocked using 5 % nonfat dry milk for 2 h. The protein blots were incubated with the corresponding primary antibodies against p-Akt (#4060, 1:1000, Cell Signaling Technology), Akt (#4685, 1:1000, Cell Signaling Technology), BACE1 (#5606, 1:1000, Cell Signaling Technology), PS1 (#5643, 1:1000, Cell Signaling Technology), p-GSK3β (#5558, 1:1000, Cell Signaling Technology), GSK3β (#12456, 1:1000, Cell Signaling Technology), Bcl-2 (#3498, 1:1000, Cell Signaling Technology), Bax (#5023, 1:1000, Cell Signaling Technology), Cleaved caspase-3 (#9661, 1:1000, Cell Signaling Technology), Caspase-3 (#9662, 1:1000, Cell Signaling Technology), ADAM10 (#14194, 1:1000, Cell Signaling Technology), APP (#ab241592, 1:1000, Abcam), sAPPα (#ab126723, 1:1000, Abcam), NEP (#ab216341, 1:1000, Abcam), Synapsin I (#ab64581, 1:1000, Abcam), Synapsin II (#ab76494, 1:1000, Abcam), NR2A (#ab124913, 1:2000, Abcam), PSD95 (#ab18258, 1:1000, Abcam), Synaptophysin (#ab32127, 1:1000, Abcam), IDE (#ab133561, 1:1000, Abcam), Drebin (#ab178408, 1:1000, Abcam) and Tau-5 (#ab80579, 1:2000, Abcam) overnight at 4°C. After washing 3 times, the membranes were incubated with the respective HRP-conjugated secondary antibody. ECL Western blotting Detection Reagents (Fdbio science, Hangzhou, China) were used to perform Chemiluminescence detection. Quantitative analysis of protein bands was conducted by the Carestream system (Carestream Health, Inc, USA).
CGNs were prepared from the 8-day-old Sprague–Dawley rats as described in our previous publication (Li et al., 2005). Briefly, animals were anesthetized and sacrificed, and their cerebella were collected. Then, the freshly collected cerebella were rinsed in cold Kreb’s buffer-BSA and digested with 0.025 % trypsin incubated in a 37°C for 15 min. The reaction was stopped, and the single cell suspension was obtained through pipetting up and down the sedimentary tissue. CGNs were seeded in basal modified Eagle’s medium (ThermoFisher Scientific, Waltham, MA, USA) supplemented with 10 % fetal bovine serum, 25 mM KCl, 2 mM glutamine and 100 units/mL penicillin/streptomycin at a density of 1.5×10^6 cells/mL. Cytosine arabinoside (10 μM) was added to inhibit the growth of non-neuronal cells at 24 h after seeding. All experiments were carried out after 8 days in vitro. […]

[2] = system: cerebellar granule neurons (CGNs); assay: MTT cell viability, glutamate-induced excitotoxicity in CGNs; assay type: cell-based, rat; settings: LY294002 incubated with MN‐08
Procedure: Excessive glutamate‐induced excitotoxicity might cause dysfunctions of cellular pathways, subsequently resulting in synaptic dysfunctions and neuronal loss. To evaluate the neuroprotective effects of MN‐08 against excitotoxicity, cerebellar granule neurons (CGNs) were treated with MN‐08 at the concentrations from 1 to 50 µM or memantine from 1 to 10 μM for 2 h, and then exposed to 100 μM glutamate for 24 h. […] Similarly, in APP/PS1 mice, MN‐08 prevented neuronal loss in the hippocampus by upregulating the expression ratio of Bcl‐2/Bax and downregulating the expression ratio of cleaved Caspase‐3 to Caspase‐3 (Figure S6).
CGNs were prepared from the 8-day-old Sprague–Dawley rats as described in our previous publication (Li et al., 2005). Briefly, animals were anesthetized and sacrificed, and their cerebella were collected. […]
Neurotoxicity was assessed using the tetrazolium salt 3-(4,5-dimethylthiazol-2-yl)-2,5- diphenyltetrazolium bromide dye (MTT) assay as previous publication (Luo et al., 2010). […] Cell viability was evaluated by observing colorimetric changes using a CLARIOstar plus Microplate Reader (BMG Labtech, Ortenberg, Germany) at a test wavelength of 570 nm with 655 nm as a reference wavelength. Data were expressed as a percentage of control cultures.

3×Tg‐AD mice = assay: Golgi staining of dendritic spines and Western blotting of synaptic markers in 3×Tg-AD mice; assay type: in vivo; settings: donepezil 1.3 mg/kg
Procedure: Triple transgenic 3×Tg‐AD mice were acquired from Jackson Laboratory and fostered in the Shenzhen Center for Disease Control and Prevention (Shenzhen, China). Eight‐month‐old 3×Tg‐AD mice were categorized into six groups: (1) 3×Tg‐AD +Vehicle group; (2) 3×Tg‐AD +MN‐08 (3 mg/kg) group; (3) 3×Tg‐AD +MN‐08 (6 mg/kg) group; (4) 3×Tg‐AD +MN‐08 (12 mg/kg) group; (5) 3×Tg‐AD +Memantine (Mem, 5 mg/kg) group; (6) 3×Tg‐AD +Donepezil (Done, 1.3 mg/kg, once daily) group; (7) Eight‐month‐old B6129SF2/J mice as a control group. MN‐08 and memantine were given twice daily (Done, once daily) by gastric gavage for 4 months from 8 months of age.
Golgi staining was used to determine hippocampal dendritic spine density by a Rapid Golgi Stain Kit (FD Neurotechnologies, Columbia, MD, USA) according to the manufacturer’s instructions. The brain was removed after the behavioral tests and incubated with impregnation solution in the dark at room temperature for 1 week. Impregnation solution was replaced with solution A and stored in the dark for 3 days. Brain sections (100 μm thickness) were placed on gelatin-coated microscope slides and then immersed in ddH2O. Solution B, Solution C, 80 % ethanol and xylene were used for 10 min, sequentially. The dendritic spines of hippocampal neurons were analyzed and counted in a blinded manner from six sections per animal by light microscopy (Olympus, Tokyo, Japan).
Western blotting analysis was performed as previously described with minor modifications (Huang, Li, & Nan, 2017). Proteins were extracted from hippocampal tissue and their concentrations determined by the BCA protein assay kit (Fdbio science, Hangzhou, China). The protein (20 μg) was separated on a 12% SDS-PAGE gel and then transferred to PVDF membranes. The membranes were blocked using 5 % nonfat dry milk for 2 h. […] Quantitative analysis of protein bands was conducted by the Carestream system (Carestream Health, Inc, USA).

Row | Compound | effect of LY294002 on upregulation of p‐Akt and p‐GSK3β by MN‐08 [1] | effect of LY294002 on the neuroprotective effects of MN‐08 against glutamate (MTT) [2] | reduction of dendritic spines (hippocampus CA1, Golgi staining) (3×Tg‐AD mice)
1 | O=c1cc(N2CCOCC2)oc2c(-c3ccccc3)cccc12 [LY294002] | significantly abolished | canceled; also recorded: partially abolished | 
2 | COc1cc2c(cc1OC)C(=O)C(CC1CCN(Cc3ccccc3)CC1)C2 (stereo not drawn) [donepezil, reference compound] |  |  | markedly reversed
